The record followed here is ChEMBL document CHEMBL5244227, “Applications of fluorine-containing amino acids for drug design” (Eur J Med Chem, 2020).

As usually defined, the IC50 is the concentration at which inhibition is half-maximal. One may read the EC50 as the concentration giving half of the maximal effect. A word on the Ki: it is a measure of affinity in units of concentration, obtained from inhibition or displacement. Broadly, the inhibition in vivo is the percentage by which the read-out fell short of the control. As a reminder, the bioavailability is the share of a dose that reaches the circulation, judged against a reference dose that is usually intravenous.

A short description of data set [1]: Inhibition of HCV NS3/4A protease. Also on record: species or system Hepacivirus hominis.
Data set [2] is described as follows: Binding affinity to CGRP (unknown origin). Also on record: species or system Homo sapiens.
In data set [3] the test system is Plasmodium berghei. The data set can be described thus: Antimalarial activity against Plasmodium berghei infected in mouse model infected with assessed as reduction in parasitemia at 100 mg/kg. Also on record: scale not given: the % may be the effect or the level left. Format: functional.
In data set [4] the test system is Hepatitis C virus. In words: Antiviral activity against HCV. Format: functional, organism-based, Hepacivirus hominis.
The nature of data set [5]: In vivo inhibition of BACE-1 in wild type Hartley guinea pig assessed as reduction in amyloid beta level in cerebrospinal fluid at 30 mg/kg, po administered twice daily for 2.5 days. In kind it is functional. To be noted: Cavia porcellus, 60 h, time 2.5 day.
Data set [6] in a line: In vivo inhibition of BACE-1 in wild type Hartley guinea pig assessed as reduction in amyloid beta level in cortex at 30 mg/kg, po administered twice daily for 2.5 days. Format: functional. To be noted: Cavia porcellus, 60 h, time 2.5 day.
Data set [7] concerns the target ATP-dependent translocase ABCB1 (Homo sapiens, UniProt P08183). In words: Substrate activity at human P-gp assessed as transport ratio.
Data set [8] in a line: Oral bioavailability in rat. In kind it is ADME, organism-based. To be noted: in vivo.

ATP-dependent translocase ABCB1, sequence (P08183 whole entry): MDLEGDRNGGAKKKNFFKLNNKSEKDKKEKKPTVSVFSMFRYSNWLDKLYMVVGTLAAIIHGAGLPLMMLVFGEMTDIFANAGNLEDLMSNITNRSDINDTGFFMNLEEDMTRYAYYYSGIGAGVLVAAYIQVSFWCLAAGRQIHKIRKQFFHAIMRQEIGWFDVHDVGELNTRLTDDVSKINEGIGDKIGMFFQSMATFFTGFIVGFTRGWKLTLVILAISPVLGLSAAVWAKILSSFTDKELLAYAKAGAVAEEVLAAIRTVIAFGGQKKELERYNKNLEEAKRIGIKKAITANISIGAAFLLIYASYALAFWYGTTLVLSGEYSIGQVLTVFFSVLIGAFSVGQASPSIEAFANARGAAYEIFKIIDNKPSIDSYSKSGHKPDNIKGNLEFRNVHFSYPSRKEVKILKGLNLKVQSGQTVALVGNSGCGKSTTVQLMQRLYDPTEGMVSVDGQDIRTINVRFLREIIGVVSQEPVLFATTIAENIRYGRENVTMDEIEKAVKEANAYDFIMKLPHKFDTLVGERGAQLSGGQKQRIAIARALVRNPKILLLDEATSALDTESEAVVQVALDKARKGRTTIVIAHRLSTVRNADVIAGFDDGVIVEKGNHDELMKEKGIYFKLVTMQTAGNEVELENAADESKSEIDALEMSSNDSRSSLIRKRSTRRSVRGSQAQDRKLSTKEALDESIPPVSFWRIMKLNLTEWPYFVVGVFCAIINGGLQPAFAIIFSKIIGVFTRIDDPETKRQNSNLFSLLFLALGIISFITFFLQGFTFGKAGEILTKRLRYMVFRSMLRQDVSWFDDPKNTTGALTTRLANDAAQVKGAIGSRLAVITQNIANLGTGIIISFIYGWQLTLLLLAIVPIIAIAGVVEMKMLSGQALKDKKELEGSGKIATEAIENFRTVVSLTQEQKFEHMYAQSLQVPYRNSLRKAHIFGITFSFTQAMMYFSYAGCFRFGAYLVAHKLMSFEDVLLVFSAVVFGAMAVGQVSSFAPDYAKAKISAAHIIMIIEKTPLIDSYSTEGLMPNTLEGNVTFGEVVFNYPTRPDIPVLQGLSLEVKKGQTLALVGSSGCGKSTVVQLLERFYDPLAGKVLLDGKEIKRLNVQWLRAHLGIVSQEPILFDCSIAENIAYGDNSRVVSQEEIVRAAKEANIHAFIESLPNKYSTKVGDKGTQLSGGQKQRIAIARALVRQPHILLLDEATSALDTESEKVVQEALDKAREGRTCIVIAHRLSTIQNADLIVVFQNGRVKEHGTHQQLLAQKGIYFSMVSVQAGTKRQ

With `COc1cnc(O[C@@H]2C[C@@H](C(=O)N[C@]3(C(=O)NS(=O)(=O)C4CC4)C[C@H]3C(F)(F)F)N(C(=O)C(NC(=O)OC(C)(C)C)C(C)(C)C)C2)c2cc(Cl)ccc12` (single isomer, unassigned), in data set [1], the half-inhibitory concentration (IC50) stood at 17 nM.
On the same count and under the same terms, for `CC[C@H](NC(=O)[C@@H]1C[C@@H](Oc2ncc(OC)c3ccc(Cl)cc23)CN1C(=O)C(NC(=O)OC(C)(C)C)C(C)(C)C)C(=O)NS(=O)(=O)C1CC1` (single isomer, unassigned) the value was 3080 nM.
The molecule `COc1cnc(O[C@@H]2C[C@@H](C(=O)N[C@@H](CC(F)F)C(=O)NS(=O)(=O)C3CC3)N(C(=O)C(NC(=O)OC(C)(C)C)C(C)(C)C)C2)c2cc(Cl)ccc12` (single isomer, unassigned) yielded an IC50 in data set [1] of 976 nM.
As to `COc1ccc2c(O[C@@H]3C[C@H]4C(=O)N[C@]5(C(=O)NS(=O)(=O)C6CC6)C[C@H]5/C=C\CCCCN(C)C(=O)[C@@H]4C3)cc(-c3nc(C(C)C)cs3)nc2c1C`, the EC50 in data set [1] is 8.1 nM.
In turn, `COc1cnc(O[C@@H]2C[C@@H](C(=O)N[C@]3(C(=O)NS(=O)(=O)C4CC4)C[C@H]3C)N(C(=O)C(NC(=O)OC(C)(C)C)C(C)(C)C)C2)c2cc(Cl)ccc12` (single isomer, unassigned) yielded a 50% inhibitory concentration (IC50) in data set [1] of 13 nM.
`COc1ccc2c(O[C@@H]3C[C@H]4C(=O)N[C@]5(C(=O)NS(=O)(=O)C6CC6)C[C@@]5(F)/C=C\CCCCN(C)C(=O)[C@@H]4C3)cc(-c3nc(C(C)C)cs3)nc2c1C` returned an EC50 in data set [1] of 15000 nM.
With `O=C(CN1C(=O)C2(CCCC2)NC[C@@H]1c1cc(F)cc(F)c1)Nc1ccc2c(c1)C[C@@]1(C2)C(=O)Nc2ncccc21`, the affinity in data set [2] corresponds to a Ki of 0.57 nM.
Turning to `COc1cnc(O[C@@H]2C[C@@H](C(=O)N[C@]3(C(=O)NS(=O)(=O)C4CC4)C[C@H]3CC(F)F)N(C(=O)C(NC(=O)OC(C)(C)C)C(C)(C)C)C2)c2cc(Cl)ccc12` (single isomer, unassigned), the IC50 in data set [1] is 1 nM.
Turning to `CC1CCc2c([nH]c3ccccc23)C2(N1)C(=O)Nc1ccc(Cl)cc12` (stereo not given), the Activity in data set [3] worked out at 96%.
Molecule `COc1ccc2c(O[C@@H]3C[C@H]4C(=O)N[C@]5(P(=O)(O)Cc6c(F)cccc6F)C[C@H]5CCCCCCC[C@H](NC(=O)OC5CCCC5)C(=O)N4C3)cc(-c3csc(NC(C)C)n3)nc2c1Cl` [GS-9256] registered an EC50 in data set [4] of 20 nM. In data set [1], this molecule showed an IC50 of 4 nM and a Ki of 0.089 nM.
As for `COc1ccc2c(O[C@@H]3C[C@H]4C(=O)N[C@]5(P(=O)(O)Cc6ccccc6)C[C@H]5/C=C/CCCCC[C@H](NC(=O)OC5CCCC5)C(=O)N4C3)cc(-c3csc(NC(C)C)n3)nc2c1`, in data set [4], a half-maximal effect (EC50) was put at 10 nM.
Consider `O=C(CN1C(=O)C2(CCCC2)NC[C@@H]1c1ccccc1)Nc1ccc2c(c1)C[C@@]1(C2)C(=O)Nc2ncccc21`, for which the Ki in data set [2] came out at 0.067 nM.
Take `CC(=O)N[C@@H](Cc1cc(F)cc(F)c1)[C@H](O)CNC1(c2cccc(C(C)(C)C(F)F)c2)CC1`: the inhibition in vivo at 30 mg/kg was determined as 32% in data set [5] and 28% in data set [6].
As to `C[C@@]1(c2cc(F)cc(F)c2)CN([11CH3])C2(CCCC2)C(=O)N1CC(=O)Nc1ccc2c(c1)C[C@@]1(C2)C(=O)Nc2ncccc21`, the Ratio in data set [7] was found to be 1.7.
`C=C[C@@H]1C[C@]1(NC(=O)[C@@H]1C[C@@H](Oc2cc(-c3csc(NC(C)C)n3)nc3cc(OC)ccc23)CN1C(=O)[C@@H](NC(=O)OC1CCCC1)C(C)(C)C)P(=O)(O)Cc1ccccc1`: the bioavailability in data set [8] was found to be 0.5%.
The molecule `NCCCC[C@H](NC(=O)[C@@H](Cc1cc(Br)c(O)c(Br)c1)NC(=O)N1CCC(N2Cc3ccccc3NC2=O)CC1)C(=O)N1CCN(c2ccncc2)CC1` [OLCEGEPANT] gave a Ki in data set [2] of 0.01 nM.
As to `O=C(CN1C(=O)C2(CCCC2)NC[C@H]1c1cc(F)cc(F)c1)Nc1ccc2c(c1)C[C@@]1(C2)C(=O)Nc2ncccc21` [MK3207], the Ki in data set [2] is 0.017 nM.
